Results: patent publication US20100273876A1, “ANTIBACTERIAL FORMULATION COMPRISING A DIALKYL SULPHOSUCCINATE AND A CARBANILIDE ANTIBACTERIAL AGENT” (priority 2007, published 2010)

Assays:
Experiment in all cases: (S)DDA disc diffusion
[1] = test system: Bact. fragilis ATCC 25285; format: cell-based, Bacteroides fragilis; details: 200 μg per disc
Procedure: (§1) A sterile paper disc was impregnated with a sample of the test compound in a suitable solvent and 30 minutes allowed for the solvents to evaporate (where possible). The disc was then placed on an agar plate onto which the test micro-organism had been inoculated. The plate was then incubated under the conditions described above, following which it was examined visually for signs of microbial growth. If the test compound had antimicrobial activity, a circular zone of no growth would be obtained around the disc. The diameter of this zone of “inhibition” was measured using a ProtoCOL™ automated zone sizer (Synbiosis, Cambridge, UK). In general, a greater diameter and/or area of the zone of inhibition indicates a greater antimicrobial activity in the relevant test compound, although other factors such as test compound mobility through the agar gel may also influence the result.
(§2) Two test a compounds A and B were placed on a single paper disc and the above described DDA procedure repeated. […]
(§3) The activities of DOSS and TCC were determined, using (S)DDAs, against a panel of further test micro-organisms, namely B. cereus ATCC 11778, Bact. fragilis ATCC 25285, Clost. difficile […] and E. faecalis ATCC 29212. […]

Strep. mutans ATCC 25175 = format: cell-based, Streptococcus mutans
Procedure: The S. mutans was cultured and maintained on Wilkins-Chalgren Anaerobe Medium (agar and broth) at pH 7.0 supplemented with 1 g/L glucose; all cultures were incubated at 37° C. for 48 h in an atmosphere containing 5% CO2.
as §1
(§4) Two test a compounds A and B were placed on a single paper disc and the above described DDA procedure repeated. An increase in diameter of the zone of inhibition, compared to the greater of the zone diameters for the two compounds individually, was taken to indicate potential antimicrobial synergy. In practical terms, an increase of greater than 5 mm could be treated as significant.
(§5) For the (S)DDA experiments; 200 μg of the DOS salts and/or the TCC were loaded onto each disc for Por. gingivalis experiments. For the Strep. mutans experiments, 200 μg of the TCC and 50 μg of DOSS were used on each disc. All the experiments were conducted in triplicate.

[2] = test system: Por. gingivalis NCTC 11834; format: cell-based, Porphyromonas gingivalis; details: for DDA: 200 μg per disc
Procedure: The P. gingivalis strains were cultured and maintained on Wilkins-Chalgren Anaerobe Medium (agar and broth) at pH 7.0; all cultures were incubated anaerobically at 37° C. for 5-7 days.
as §1, §4, §5

P. granulosum PRP-006 = format: cell-based, Propionibacterium granulosum
Procedure: (§6) The propionibacteria were cultured and maintained on Wilkins-Chalgren Anaerobe Medium (agar and broth) at pH 6.0; all cultures were incubated anaerobically at 37° C. for 72 hours.
as §1, §4
(§7) Both the DDA and the SDDA test may be carried out using an agar gel supplemented with lipid and/or salt to simulate some of the major components present in human skin and to assess whether these substances might reduce the antimicrobial activity observed for the test compound. Performance under these conditions can provide a more reliable indication of activity on topical application. The supplements used in Examples 1, 11, 12 and 13 below were lipid (either Tween™ 80 at 1% v/v (Example 1) or triolein at 1% v/v (Examples 11, 12 and 13) and sodium chloride (100 mM).

P. granulosum NCTC 11865 = format: cell-based, Propionibacterium granulosum
Procedure: as §6, §1, §4, §7

P. granulosum PRP-019 = format: cell-based, Propionibacterium granulosum
Procedure: as §6, §1, §4, §7

P. granulosum PRP-044 = format: cell-based, Propionibacterium granulosum
Procedure: as §6, §1, §4, §7

B. cereus ATCC 11778 = format: cell-based, Bacillus cereus; details: 200 μg per disc
Procedure: as §1, §2, §3

C. striatum NCTC 764 = format: cell-based, Corynebacterium striatum; details: for DDA: 200 μg per disc
Procedure: Several Corynebacterium test species were also used in this study, namely C. mucifaciens ATCC 700355, C. striatum NCTC 764, C. xerosis NCTC 11861 and C. jeikeium NCTC 11915. These Gram-positive pathogens are closely related to organisms (aerobic diphtheroids of the genus Corynebacterium) that cause body odour. C. mucifaciens and C. striatum were cultured and maintained on Mueller-Hinton Medium (agar and broth) and were incubated aerobically at 37° C. for 24 hours. C. xerosis and C. jeikeium were cultured and maintained on Mueller-Hinton Medium containing 5% (v/v) lysed horse blood (agar and broth) and were incubated aerobically at 37° C. for 72 hours. A sterile paper disc was impregnated with a sample of the test compound in a suitable solvent and 30 minutes allowed for the solvents to evaporate (where possible). The disc was then placed on an agar plate onto which the test micro-organism had been inoculated. The plate was then incubated under the conditions described above, following which it was examined visually for signs of microbial growth. If the test compound had antimicrobial activity, a circular zone of no growth would be obtained around the disc. The diameter of this zone of “inhibition” was measured using a ProtoCOL™ automated zone sizer (Synbiosis, Cambridge, UK). In general, a greater diameter and/or area of the zone of inhibition indicates a greater antimicrobial activity in the relevant test compound, although other factors such as test compound mobility through the agar gel may also influence the result. Two test a compounds A and B were placed on a single paper disc and the above described DDA procedure repeated. An increase in diameter of the zone of inhibition, compared to the greater of the zone diameters for the two compounds individually, was taken to indicate potential antimicrobial synergy. In practical terms, an increase of greater than 5 mm could be treated as significant. The activities of DOSS and TCC were determined, using (S)DDAs, against the test organisms C. mucifaciens ATCC 700355, C. striatum NCTC 764, C. xerosis NCTC 11861 and C. jeikeium NCTC 11915. 200 μg of the DOSS and/or the TCC were loaded onto each disc. All the experiments were conducted in triplicate.

[3] = 200 μg TCC or 50 μg DOSS per disc
[4] = P. granulosum PRP-006 (MLS), 200 μg TCC or 50 μg DOSS per disc
[5] = P. granulosum NCTC 11865 (resistance None), 200 μg TCC or 50 μg DOSS per disc
[6] = P. granulosum PRP-019 (MLSK), 200 μg TCC or 50 μg DOSS per disc
[7] = P. granulosum PRP-044 (MLS), 200 μg TCC or 50 μg DOSS per disc

Compound: O=C(Nc1ccc(Cl)cc1)Nc1ccc(Cl)c(Cl)c1 [TCC, N-(4-chlorophenyl)-N′-(3,4-dichlorophenyl) urea]
- DDA [1]: 14.71 mm
- DDA (Strep. mutans ATCC 25175; [3]): 11.95 mm
- DDA [2]: 23.73 mm
- DDA (P. granulosum PRP-006; [4]): 10.17 mm
- DDA (P. granulosum NCTC 11865; [5]): 17.78 mm
- DDA (P. granulosum PRP-019; [6]): 0.00 mm
- DDA (P. granulosum PRP-044; [7]): 0.00 mm
- DDA (B. cereus ATCC 11778): 12.96 mm
- DDA (C. striatum NCTC 764): 14.08 mm

Compound: dioctyl sodium sulphosuccinate [DOSS]
- DDA [1]: 19.74 mm
- SDDA area increase (Strep. mutans ATCC 25175): 42.61%
- SDDA increase (Strep. mutans ATCC 25175): 4.68 mm
- SDDA with TCC (Strep. mutans ATCC 25175; 50 μg DOSS + 200 μg TCC on one disc): 28.78 mm
- DDA (Strep. mutans ATCC 25175; [3]): 24.1 mm
- DDA (Strep. mutans ATCC 25175; 200 μg per disc): 40.25 mm
- SDDA area increase [2]: 54.34%
- SDDA increase [2]: 12.39 mm
- SDDA with TCC ([2]; 200 μg DOS salt + 200 μg TCC on one disc): 63.52 mm
- DDA [2]: 51.13 mm
- DDA (P. granulosum PRP-006; [4]): 19.01 mm
- DDA (P. granulosum PRP-006; P. granulosum PRP-006, 200 μg per disc): 40.47 mm
- DDA + salt (P. granulosum PRP-006; P. granulosum PRP-006, 200 μg per disc, sodium chloride 100 mM): 41.09 mm
- DDA + lipid (P. granulosum PRP-006; P. granulosum PRP-006, 200 μg per disc, triolein 1% v/v): 40.16 mm
- DDA (P. granulosum NCTC 11865; [5]): 14.70 mm
- DDA (P. granulosum NCTC 11865; P. granulosum NCTC 11865, 200 μg per disc): 39.84 mm
- DDA + salt (P. granulosum NCTC 11865; P. granulosum NCTC 11865, 200 μg per disc, sodium chloride 100 mM): 37.98 mm
- DDA + lipid (P. granulosum NCTC 11865; P. granulosum NCTC 11865, 200 μg per disc, triolein 1% v/v): 38.60 mm
- DDA (P. granulosum PRP-019; [6]): 19.94 mm
- DDA (P. granulosum PRP-019; P. granulosum PRP-019, 200 μg per disc): 41.71 mm
- DDA + salt (P. granulosum PRP-019; P. granulosum PRP-019, 200 μg per disc, sodium chloride 100 mM): 42.02 mm
- DDA + lipid (P. granulosum PRP-019; P. granulosum PRP-019, 200 μg per disc, triolein 1% v/v): 42.65 mm
- DDA (P. granulosum PRP-044; [7]): 0.00 mm
- DDA (P. granulosum PRP-044; P. granulosum PRP-044, 200 μg per disc): 38.29 mm
- DDA + salt (P. granulosum PRP-044; P. granulosum PRP-044, 200 μg per disc, sodium chloride 100 mM): 37.67 mm
- DDA + lipid (P. granulosum PRP-044; P. granulosum PRP-044, 200 μg per disc, triolein 1% v/v): 35.49 mm
- DDA (B. cereus ATCC 11778): 18.10 mm
- SDDA area increase (C. striatum NCTC 764): 70.79%
- SDDA increase (C. striatum NCTC 764): 6.0 mm
- SDDA with TCC (C. striatum NCTC 764; 200 μg DOSS + 200 μg TCC on one disc): 25.57 mm
- DDA (C. striatum NCTC 764): 19.57 mm
